Assay results from patent US20080153760A1, “Haircare Use Of C-Glycoside Derivatives” (L'OREAL, priority 2005, published 2008).

Assay: Degree of premature breaking of hair, tensile test
Conditions: parameter R; natural African hair immersed three days at 40° C. in composition of 5% by weight compound and 95% water, no final rinsing; hairs 30 mm, pulled at 10 mm/minute; untreated control 0.27
Protocol: The hair used for the following tests was regulated beforehand in a glove box at 25° C. and 45% relative humidity for about 24 hours. This was natural curly African hair.
The four abovementioned compounds were respectively formulated in the form of a composition comprising 5% by weight of the compound under consideration and 95% by weight of water relative to the total weight of the composition.
Four batches of natural African hair were treated, respectively, with each of the four compositions according to the following protocol: the hair is immersed for three days at 40° C. in the composition under consideration, without final rinsing, and its degree of premature breaking is then assessed by comparison with that of a batch of untreated natural control hair.
The degree of premature breaking of the hair is characterized by the following parameter R:
R=1−(number of hairs showing breakage under tension in the hardening zone/N),
N being the total number of hairs tested.
The corresponding mechanical tests are performed using a Zwicko tensile testing machine on hairs 30 mm long. The hairs were pulled at a speed of 10 mm/minute.

Structure (SMILES) | Degree of premature breaking
CC(=O)C[C@@H]1O[C@H](CO)[C@@H](O[C@@H]2O[C@H](CO)[C@H](O)[C@H](O)[C@H]2O)[C@H](O)[C@H]1O [Compound 3, C-β-D-Lactopyranoside-n-propan-2-one] | 0.13
CC(=O)C[C@@H]1O[C@H](CO)[C@@H](O)[C@H](O)[C@H]1O [Compound 4, C-β-D-glucopyranoside-n-propan-2-one] | 0.23
CC(O)C[C@@H]1OC[C@@H](O)[C@H](O)[C@H]1O (stereo partly drawn) [Compound 1, C-β-D-xylopyranoside-2-hydroxypropane] | 0.17
CC(=O)C[C@@H]1OC[C@@H](O)[C@H](O)[C@H]1O [Compound 2, C-β-D-Xylopyranoside-n-propan-2-one] | 0.20
